Source: publication PMC9919983, “Screening Evaluation of Antiproliferative, Antimicrobial and Antioxidant Activity of Lichen Extracts and Secondary Metabolites In Vitro” (Plants, 2023)

Legend:
[1] = design: method as in PMID 35448805; settings: pure compounds, compared to ascorbic acid; cited from earlier work
[2] = DPPH radical scavenging assay; settings: 30 min, absorbance 517 nm
Description: The free radical scavenging activity of lichen extracts was measured using 1,1-diphenyl-2-picryl-hydrazil (DPPH). The antioxidant activity via this method is described in several studies and here it is slightly modified. The extracts were dissolved in a small amount of pure DMSO and then filled with distilled water to a concentration of 1 mg/mL. In addition, 10 μL of 5% NaOH solution was added to help dissolve the extracts fully. Stock solutions were subsequently diluted to the desired concentrations. The reaction mixture consisted of 2 mL of DPPH methanolic solution (0.1 mM) and 1 mL of our extracts to reach a final volume of 3 mL. The samples were incubated at laboratory temperature in the dark for 30 min. After the incubation, the absorbance of the samples was measured at 517 nm in a spectrophotometer (multi-detection microplate reader; Synergy HT, BioTek, Winooski, VT, USA). Ascorbic acid was used as positive control. A solution of 5% DMSO (1 mL) in MeOH (2 mL) was used as a blank control. The DPPH radical concentration was calculated by the equation:Free radical scavenging activity (%) = [(A0 − A1)/A)] × 100(2) where A0 was the absorbance of negative control and A1 was the absorbance of the reaction mixture of our samples.

[3] = tested on: Staphyloccocus aureus CCM 4223; experiment: Agar well-diffusion method; type: cell-based; settings: pure compound 0.57 mM
COS-7 [4] = experiment: Resazurin screening assay, 2D culture; type: cell-based; settings: COS-7 (Kidney Fibroblasts), non-cancerous, 72 h, secondary metabolites and cisplatin
Description: (§1) All experiments were performed in triplicate.

COS-7 [5] = experiment: Resazurin screening assay, 3D spheroids; type: cell-based; settings: COS-7 (Kidney Fibroblasts), non-cancerous, 72 h, secondary metabolites and cisplatin
Description: as §1

Jurkat [6] = experiment: Resazurin screening assay, 2D suspension culture; type: cell-based, human; settings: Jurkat (Leukemia), 72 h, secondary metabolites and cisplatin
Description: as §1

MDA-MB-231 [7] = experiment: Resazurin screening assay, 2D culture; type: cell-based, human; settings: MDA-MB-231 (Breast ER−), 72 h, secondary metabolites and cisplatin
Description: as §1

BLM [8] = experiment: Resazurin screening assay, 2D culture; type: cell-based, human; settings: BLM (Melanoma), 72 h, secondary metabolites and cisplatin
Description: as §1

HCT116 [9] = experiment: Resazurin screening assay, 2D culture; type: cell-based, human; settings: HCT116 (Colon), 72 h, secondary metabolites and cisplatin
Description: as §1

MCF-7 [10] = experiment: Resazurin screening assay, 2D culture; type: cell-based, human; settings: MCF-7 (Breast ER+), 72 h, secondary metabolites and cisplatin
Description: as §1

A549 [11] = experiment: Resazurin screening assay, 2D culture; type: cell-based, human; settings: A549 (Lung), 72 h, secondary metabolites and cisplatin
Description: as §1

BJ-5ta [12] = experiment: Resazurin screening assay, 2D culture; type: cell-based, human; settings: BJ-5ta (Skin Fibroblasts), non-cancerous, 72 h, secondary metabolites and cisplatin
Description: as §1

HeLa [13] = experiment: Resazurin screening assay, 2D culture; type: cell-based, human; settings: HeLa (Cervix), 72 h, secondary metabolites and cisplatin
Description: as §1

MCF-10A [14] = experiment: Resazurin screening assay, 2D culture; type: cell-based, human; settings: MCF-10A (Breast Epithelial), non-cancerous, 72 h, secondary metabolites and cisplatin
Description: as §1

A2780 [15] = experiment: Resazurin screening assay, 2D culture; type: cell-based, human; settings: A2780 (Ovarian), 72 h, secondary metabolites and cisplatin
Description: as §1

MDA-MB-231 [16] = experiment: Resazurin screening assay, 3D spheroids; type: cell-based, human; settings: MDA-MB-231 (Breast ER−), 72 h, secondary metabolites and cisplatin
Description: as §1

BLM [17] = experiment: Resazurin screening assay, 3D spheroids; type: cell-based, human; settings: BLM (Melanoma), 72 h, secondary metabolites and cisplatin
Description: as §1

HCT116 [18] = experiment: Resazurin screening assay, 3D spheroids; type: cell-based, human; settings: HCT116 (Colon), 72 h, secondary metabolites and cisplatin
Description: as §1

MCF-7 [19] = experiment: Resazurin screening assay, 3D spheroids; type: cell-based, human; settings: MCF-7 (Breast ER+), 72 h, secondary metabolites and cisplatin
Description: as §1

A549 [20] = experiment: Resazurin screening assay, 3D spheroids; type: cell-based, human; settings: A549 (Lung), 72 h, secondary metabolites and cisplatin
Description: as §1

BJ-5ta [21] = experiment: Resazurin screening assay, 3D spheroids; type: cell-based, human; settings: BJ-5ta (Skin Fibroblasts), non-cancerous, 72 h, secondary metabolites and cisplatin
Description: as §1

HeLa [22] = experiment: Resazurin screening assay, 3D spheroids; type: cell-based, human; settings: HeLa (Cervix), 72 h, secondary metabolites and cisplatin
Description: as §1

Jurkat [23] = experiment: Resazurin screening assay, 3D spheroids; type: cell-based, human; settings: Jurkat (Leukemia), 72 h, secondary metabolites and cisplatin
Description: as §1

MCF-10A [24] = experiment: Resazurin screening assay, 3D spheroids; type: cell-based, human; settings: MCF-10A (Breast Epithelial), non-cancerous, 72 h, secondary metabolites and cisplatin
Description: as §1

A2780 [25] = experiment: Resazurin screening assay, 3D spheroids; type: cell-based, human; settings: A2780 (Ovarian), 72 h, secondary metabolites and cisplatin
Description: as §1

Question: Which “free radical scavenging activity in DPPH assay (in words)” value (from here on “free radical scavenging activity”) [1] does the source give for `COc1cc(C)c(C(=O)Oc2cc(C)c(C(=O)O)c(O)c2)c(O)c1` [EA, evernic acid] here?
Answer: None of the tested compounds showed notable free radical scavenging activity

Question: For `COC(=O)c1c(C)cc(OC(=O)c2c(C)cc(O)c(C=O)c2O)c(C)c1O` [A, atranorin], which “free radical scavenging activity” value [1] is on record?
Answer: None of the tested compounds showed notable free radical scavenging activity

Question: For `O=C1O[C@H]([C@@H](O)CO)C(O)=C1O` [Ascorbic acid], which “IC50 by DPPH radical scavenging assay” value [2] is on record?
Answer: 7.7 ± 0.4 µg/mL

Question: For `CCCCCC(=O)Cc1cc(O)cc2c1C(=O)Oc1cc(O)c(C(=O)O)c(CCCCC)c1O2` [Phy, physodic acid], which “effectiveness among the chosen secondary metabolites (in words)” value [3] is on record?
Answer: most effective

Question: What about the “% RIZD S. aureus” value ([3]; relative inhibition zone diameter vs gentamicin 50 µg/mL) of the same compound?
Answer: 118.78%

Question: And the “free radical scavenging activity” value [1]?
Answer: None of the tested compounds showed notable free radical scavenging activity

Question: For `N.N.[Cl][Pt][Cl]` [CisPt, cisplatin], which IC50 (COS-7 [4]) is on record?
Answer: 24.6 µM

Question: What about the IC50 (COS-7 [5]) of the same compound?
Answer: 154 µM

Question: What about the IC50 (Jurkat [6]) of the same compound?
Answer: 6.3 µM

Question: What about the IC50 (MDA-MB-231 [7]) of the same compound?
Answer: 7.1 µM

Question: What about the IC50 (BLM [8]) of the same compound?
Answer: 29.5 µM

Question: What about the IC50 (HCT116 [9]) of the same compound?
Answer: 7.4 µM

Question: What about the IC50 (MCF-7 [10]) of the same compound?
Answer: 29.7 µM

Question: What about the IC50 (A549 [11]) of the same compound?
Answer: 23.5 µM

Question: What about the IC50 (BJ-5ta [12]) of the same compound?
Answer: 37.9 µM

Question: And the IC50 (HeLa [13])?
Answer: 35.4 µM

Question: And the IC50 (MCF-10A [14])?
Answer: 25.9 µM

Question: And the IC50 (A2780 [15])?
Answer: 9.3 µM

Question: And the IC50 (MDA-MB-231 [16])?
Answer: 75.4 µM

Question: What about the IC50 (BLM [17]) of the same compound?
Answer: 89.9 µM

Question: And the IC50 (HCT116 [18])?
Answer: 98.4 µM

Question: And the IC50 (MCF-7 [19])?
Answer: 78.3 µM

Question: What about the IC50 (A549 [20]) of the same compound?
Answer: 119 µM

Question: And the IC50 (BJ-5ta [21])?
Answer: 186 µM

Question: What about the IC50 (HeLa [22]) of the same compound?
Answer: 78 µM

Question: What about the IC50 (Jurkat [23]) of the same compound?
Answer: 6.7 µM

Question: What about the IC50 (MCF-10A [24]) of the same compound?
Answer: 121 µM

Question: What about the IC50 (A2780 [25]) of the same compound?
Answer: 134 µM

Question: With `Cc1cc(OC(=O)c2c(C)cc(OC(=O)c3c(C)cc(O)cc3O)cc2O)cc(O)c1C(=O)O` [GA, gyrophoric acid] as the compound, how does the “free radical scavenging activity” value [1] read?
Answer: None of the tested compounds showed notable free radical scavenging activity
